One data set addresses BesE (Streptantibioticus cattleyicolor, UniProt F8JJ27). Description: BesE hydroxylation in vitro in the presence of ascorbate and α-KG. The format is biochemical, Streptomyces cattleya. From the text: Knockout strain of putative amino acid hydroxylase, BesE, was only capable of producing Pra. […] This lead us to believe that there might be an amino acid carrier that serves as the true substrate for BesE. Through comparative metabolomics, we were able to identify a metabolite enriched in S. cattleya ΔbesE over wildtype. This compound was also present, but at low concentration, in S. cattleya ΔbesA. We identified this compound as having mass consistent with a Pra-Glu dipeptide. When this compound was fragmented we were able to detect characteristic fragments consistent with an amide bond cleavage, supporting evidence that this compound is a Pra-Glu dipeptide.
The last dedicated enzyme involved in the biosynthesis of βes is BesE. Once we had identified Pra-Glu as the product of BesA, it became apparent that the true substrate of BesE is a Pra-Glu dipeptide. S. cattleya ΔbesB, ΔbesC, ΔbesD, and ΔbesE were unable to produce measurable amounts of the dipeptides in vivo. In comparison, ΔbesA was still able to produce βes-Glu but at lower titers when compared to S. cattleya wildtype.

The target in another data set is BesA (Streptantibioticus cattleyicolor, UniProt G8XHD8). Description: BesA dipeptide formation in vitro with glutamate and ATP, substrate specificity. The class given is biochemical, Streptomyces cattleya. As to conditions: for activity as BesA substrate (ligation to glutamate): reacted with glutamate, ATP. From the text:
We then explored the specifity of BesA by reacting glutamate with norvaline, allylglycine, and the remaining 19 canonical amino acids.
BesA shares homology to carboxylate-amine ligases, which form amides between amines and carboxylates through an ATP-dependent mechanism.

Another data set has as its target T1, BesB (Streptantibioticus cattleyicolor, UniProt G8XHD7).
T1 construct: made in house
Description: BesB terminal-alkyne (Pra) formation in vitro; isomerization, D2O exchange and PLP-conjugate trapping. As to conditions: for binding to BesB as PLP-conjugate: chemical reduction with imine-reducing reagents; for formation of Pra by BesB from substrate: in vitro. The class given is biochemical, Streptomyces cattleya. How it is done:
We next turned our attention to formation of the terminal-alkyne. BesB belongs to a family of proteins that utilize pyrodoxyal-5′-phosphate (PLP) as cofactor. Incubating purified BesD, BesC, and BesB in the presence of iron, ascorbate, lysine, and PLP was sufficient to produce Pra in vitro. This order of events is […] to how terminal-alkynes are synthesized chemically, since biosynthesis of Pra involves elimination of an alkyl-halide to a terminal-alkyne. Terminal desaturations have previously only been observed on fatty acids and catalyzed by O2/di-iron dependent fatty acid desaturases. […] From in vitro characterization, we also found it was necessary for the amino acid substrate to be halogenated at the Cγ position.
(§1) While formation of allene-quinonoid can be mechanistically explained, there is no precedence of an enzyme catalyzed allene-alkyne isomerization. One possibility is that BesB forms α-allenyl-glycine enzymatically and isomerization occurs after α-allenyl-glycine is released from PLP. […] Another possibility is BesB produces and releases α-allenyl-glycine, and is subsequently enzymatically isomerized. […] Finally, we explored the possibility of α-allenyl-glycine binding to BesB as a PLP-conjugate by chemically reducing the whole complex with imine-reducing reagents.

A further data set relates to cystathionine-γ-lyase. As to conditions: previously identified; cited from earlier work.
The target in another data set is BesD from S. cattleya (Streptantibioticus cattleyicolor, UniProt G8XHD5). In words: BesD enzyme-coupled assay that reports on succinate production. The class given is biochemical, Streptomyces cattleya. From the text: Activity of BesD from S. cattleya on L-lysine was first screened using an enzyme-coupled assay that reports on succinate production.
Chain of BesD from S. cattleya (G8XHD5 whole entry): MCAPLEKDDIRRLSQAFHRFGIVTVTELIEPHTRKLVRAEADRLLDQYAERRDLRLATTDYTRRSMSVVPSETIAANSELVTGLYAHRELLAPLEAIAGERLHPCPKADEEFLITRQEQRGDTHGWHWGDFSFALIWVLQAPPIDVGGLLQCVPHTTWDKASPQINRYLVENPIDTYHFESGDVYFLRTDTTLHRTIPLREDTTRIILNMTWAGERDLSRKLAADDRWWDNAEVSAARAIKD
The target of the next data set is T2, BesC (Streptantibioticus cattleyicolor, UniProt F8JJ25).
T2 construct: made in house
T2 sequence (F8JJ25 whole entry): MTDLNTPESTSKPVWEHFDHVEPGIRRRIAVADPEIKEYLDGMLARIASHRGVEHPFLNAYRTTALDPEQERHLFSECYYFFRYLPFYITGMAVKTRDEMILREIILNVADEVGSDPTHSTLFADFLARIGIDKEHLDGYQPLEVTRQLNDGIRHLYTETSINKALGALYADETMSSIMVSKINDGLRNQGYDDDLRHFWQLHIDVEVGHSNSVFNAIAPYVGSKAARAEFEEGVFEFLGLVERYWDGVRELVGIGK
Description: BesC coupled reaction with BesD, cofactors and lysine. The class given is biochemical, Streptomyces cattleya. The conditions noted are these: cofactors. From the text:
To further characterize BesC, we then tested the ability of BesC to produce 4-Cl-allygllycine in vitro. Addition of Fe(II) to purified apo-enzyme supports the observed reaction, while omission of Fe(II) results in no reaction, supporting the Fe-dependence of the enzyme.

Data set [1] can be described thus: spontaneous isomerization of free α-allenyl-glycine in buffered solution / D2O. The class given is physicochemical.
Description: as §1

SMILES strings stand for the structures.

T1 sequence (G8XHD7 whole entry): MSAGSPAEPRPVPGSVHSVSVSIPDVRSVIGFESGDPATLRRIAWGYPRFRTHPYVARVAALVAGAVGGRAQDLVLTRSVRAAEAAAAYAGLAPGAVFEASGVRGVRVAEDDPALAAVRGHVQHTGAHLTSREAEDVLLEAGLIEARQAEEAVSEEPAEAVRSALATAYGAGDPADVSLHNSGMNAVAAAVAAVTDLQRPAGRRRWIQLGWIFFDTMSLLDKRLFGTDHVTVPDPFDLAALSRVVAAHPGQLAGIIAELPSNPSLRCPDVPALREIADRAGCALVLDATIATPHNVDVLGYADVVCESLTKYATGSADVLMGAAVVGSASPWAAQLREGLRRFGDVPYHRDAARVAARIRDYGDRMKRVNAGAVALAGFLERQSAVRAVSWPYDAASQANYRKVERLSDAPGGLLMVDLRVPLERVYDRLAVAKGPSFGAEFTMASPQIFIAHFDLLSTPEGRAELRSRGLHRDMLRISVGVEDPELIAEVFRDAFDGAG
Chain of BesA (G8XHD8 whole entry): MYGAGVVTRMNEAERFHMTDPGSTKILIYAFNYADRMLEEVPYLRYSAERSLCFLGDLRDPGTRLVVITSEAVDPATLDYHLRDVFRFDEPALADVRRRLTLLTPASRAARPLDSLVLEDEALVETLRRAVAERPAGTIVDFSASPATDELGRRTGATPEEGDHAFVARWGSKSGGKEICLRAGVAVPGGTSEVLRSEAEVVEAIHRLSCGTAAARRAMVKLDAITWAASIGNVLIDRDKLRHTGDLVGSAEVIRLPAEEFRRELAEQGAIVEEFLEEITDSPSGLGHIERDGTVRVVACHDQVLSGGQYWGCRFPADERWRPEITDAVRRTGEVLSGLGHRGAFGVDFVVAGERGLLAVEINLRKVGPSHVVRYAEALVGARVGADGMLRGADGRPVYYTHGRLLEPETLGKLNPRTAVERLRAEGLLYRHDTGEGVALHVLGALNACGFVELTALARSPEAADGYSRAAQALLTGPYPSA
Chain of BesE (F8JJ27 whole entry, the tested form may be a part): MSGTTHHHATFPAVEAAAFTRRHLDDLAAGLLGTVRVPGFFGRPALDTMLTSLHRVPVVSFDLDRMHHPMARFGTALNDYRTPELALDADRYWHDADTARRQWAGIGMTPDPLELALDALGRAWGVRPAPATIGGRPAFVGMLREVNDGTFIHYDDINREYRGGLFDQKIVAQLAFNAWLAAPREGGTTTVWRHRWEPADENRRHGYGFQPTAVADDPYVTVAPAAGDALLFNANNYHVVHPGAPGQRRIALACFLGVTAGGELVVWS

Consider `C#CC[C@H](NC(=O)CC[C@H](N)C(=O)O)C(=O)O` [Glu-Pra dipeptide, γ-Glu-α-Pra], for which the “reaction with BesE (hydroxylation)” value at BesE was “able to hydroxylate”.
Turning to `C#CCC(N)C(=O)O` (stereo not shown) [Pra, propargylglycine], at BesA (BesA substrate), the “Km for Pra relative to Km for Cys” value came to 10 fold lower and the “kcat, Pra compared with Cys” value was “comparable”. For the same compound, the “activity as BesA substrate (ligation to glutamate)” value (from here on “activity as BesA substrate”) on BesA is “measurable activity”. Moreover, at BesB, the “binding to BesB as PLP-conjugate” value was “able to observe Pra as a PLP bound species”. For the same compound, the “reaction with BesE (hydroxylation)” value on BesE is “no reaction was observed”. Further, the “inhibition of PLP proteins including cystathionine-γ-lyase” value in the data set with cystathionine-γ-lyase is on record as “mechanistic, suicide inhibitor”.
In the case of `C=C(Br)CC(N)C(=O)O` (stereo not shown) [4-Br-allylglycine], at BesB, the “formation of Pra by BesB from substrate” value is given as “able to form Pra”.
Take `NCCCC[C@H](N)C(=O)O` [L-lysine]: at BesD from S. cattleya, the “BesD activity with substrate (rate of NADH production)” value (from here on “BesD activity with substrate”) is listed as “greatest”. Besides, the “accepted as BesC substrate” value at BesC is on record as “accepts lysine as a substrate directly to form allylglycine”.
With `C=CCC(N)C(=O)O` (stereo not shown) [allylglycine], the “activity as BesA substrate” value at BesA was “Pra and Cys were the only two amino acids to show any measurable activity”. Further, the “formation of Pra by BesB from substrate” value at BesB is “not when allylglycine is a substrate”.
Regarding `N[C@@H](CS)C(=O)O` [Cys, cysteine], the “activity as BesA substrate” value on BesA was “measurable activity”.
With `C=C=CC(N)C(=O)O` (stereo not drawn) [α-allenyl-glycine, reference compound], at BesB, the “binding to BesB as PLP-conjugate” value was “unable to bind BesB”. For the same compound, on BesB (incubated with BesB in D2O), the “D2O exchange in the presence of BesB” value was “neglible D2O exchange” and the “isomerization by BesB” value is recorded as “no isomerization”. Besides, the “spontaneous formation of Pra” value in data set [1] (buffered solution, 24 h, room temperature) is recorded as “did not produce detectable amounts of Pra”. Further, the exchange with solvent result in data set [1] (incubated in D2O, no enzyme) is given as “negligible exchange”.
Consider `N=C(N)NCCC[C@H](N)C(=O)O` [arginine], for which, at BesD from S. cattleya, the “BesD activity with substrate” value is given as “no activity”.
On to `C=C(Cl)CC(N)C(=O)O` (stereo not shown) [4-Cl-allylglycine], for which, on BesB, the “formation of Pra by BesB from substrate” value is recorded as “able to form Pra”.
As for `CCC[C@H](N)C(=O)O` [norvaline], at BesA, the “activity as BesA substrate” value was “Pra and Cys were the only two amino acids to show any measurable activity”. For the same compound, the “BesD activity with substrate” value on BesD from S. cattleya is reported as “no activity”.

(Values after patent US11098336B2, “Biosynthesis of bioorthogonal amino acids” (The Regents of the University of California, priority 2017, dated 2021).)
